In patent US20230049952A1, “METHODS AND COMPOUNDS FOR RESTORING MUTANT P53 FUNCTION” (PMV Pharmaceuticals, Inc., priority 2020, published 2023):

System: p53 signaling pathway in MT373 tumors
Assay: MT373 syngeneic sarcoma model: mouse p53 signaling pathway profiling panel
Assay type: in vivo
Details: MT373 tumors

CCn1c(C#CCNc2ccccc2)cc2cc(CNC3CCN(C)CC3)ccc21 [Compound 1, 1-Anilino-3-{1-ethyl-5-[(1-methyl-4-piperidylamino)methyl]-1H-indol-2-yl}-2-propyne]
Wt1 mRNA, Fold Increase Over Vehicle Control or Percent Reduction Compared to Vehicle Control (%) (75 mg/kg BIDx1, 72 h): 23.33 fold or %
Zmat3 mRNA, Fold Increase Over Vehicle Control or Percent Reduction Compared to Vehicle Control (%) (75 mg/kg BIDx1, 72 h): 1.10 fold or %
Actb* mRNA (housekeeping or reference gene), Fold Increase Over Vehicle Control or Percent Reduction Compared to Vehicle Control (%) (150 mg/kg BIDx1, 8 h): 1.00 fold or %
B2m* mRNA (housekeeping or reference gene), Fold Increase Over Vehicle Control or Percent Reduction Compared to Vehicle Control (%) (150 mg/kg BIDx1, 8 h): 1.05 fold or %
Gapdh* mRNA (housekeeping or reference gene), Fold Increase Over Vehicle Control or Percent Reduction Compared to Vehicle Control (%) (150 mg/kg BIDx1, 8 h): 1.02 fold or %
Gusb* mRNA (housekeeping or reference gene), Fold Increase Over Vehicle Control or Percent Reduction Compared to Vehicle Control (%) (150 mg/kg BIDx1, 8 h): 1.02 fold or %
Hsp90ab1* mRNA (housekeeping or reference gene), Fold Increase Over Vehicle Control or Percent Reduction Compared to Vehicle Control (%) (150 mg/kg BIDx1, 8 h): 9.13 fold or %
MGDC* (housekeeping or reference gene), Fold Increase Over Vehicle Control or Percent Reduction Compared to Vehicle Control (%) (150 mg/kg BIDx1, 8 h): 1.00 fold or %
Trp63 mRNA, Fold Increase Over Vehicle Control or Percent Reduction Compared to Vehicle Control (%) (150 mg/kg BIDx1, 8 h): 1.02 fold or %
Trp73 mRNA, Fold Increase Over Vehicle Control or Percent Reduction Compared to Vehicle Control (%) (150 mg/kg BIDx1, 8 h): 1.00 fold or %
Wt1 mRNA, Fold Increase Over Vehicle Control or Percent Reduction Compared to Vehicle Control (%) (150 mg/kg BIDx1, 8 h): 30.29 fold or %
Zmat3 mRNA, Fold Increase Over Vehicle Control or Percent Reduction Compared to Vehicle Control (%) (150 mg/kg BIDx1, 8 h): 6.69 fold or %
Actb* mRNA (housekeeping or reference gene), Fold Increase Over Vehicle Control or Percent Reduction Compared to Vehicle Control (%) (150 mg/kg BIDx1, 24 h): 1.11 fold or %
B2m* mRNA (housekeeping or reference gene), Fold Increase Over Vehicle Control or Percent Reduction Compared to Vehicle Control (%) (150 mg/kg BIDx1, 24 h): 1.11 fold or %
Gapdh* mRNA (housekeeping or reference gene), Fold Increase Over Vehicle Control or Percent Reduction Compared to Vehicle Control (%) (150 mg/kg BIDx1, 24 h): 14.16 fold or %
Gusb* mRNA (housekeeping or reference gene), Fold Increase Over Vehicle Control or Percent Reduction Compared to Vehicle Control (%) (150 mg/kg BIDx1, 24 h): 1.25 fold or %
Hsp90ab1* mRNA (housekeeping or reference gene), Fold Increase Over Vehicle Control or Percent Reduction Compared to Vehicle Control (%) (150 mg/kg BIDx1, 24 h): 24.42 fold or %
MGDC* (housekeeping or reference gene), Fold Increase Over Vehicle Control or Percent Reduction Compared to Vehicle Control (%) (150 mg/kg BIDx1, 24 h): 1.00 fold or %
Trp63 mRNA, Fold Increase Over Vehicle Control or Percent Reduction Compared to Vehicle Control (%) (150 mg/kg BIDx1, 24 h): 1.00 fold or %
Trp73 mRNA, Fold Increase Over Vehicle Control or Percent Reduction Compared to Vehicle Control (%) (150 mg/kg BIDx1, 24 h): 1.00 fold or %
Wt1 mRNA, Fold Increase Over Vehicle Control or Percent Reduction Compared to Vehicle Control (%) (150 mg/kg BIDx1, 24 h): 21.51 fold or %
Zmat3 mRNA, Fold Increase Over Vehicle Control or Percent Reduction Compared to Vehicle Control (%) (150 mg/kg BIDx1, 24 h): 6.17 fold
Actb* mRNA (housekeeping or reference gene), Fold Increase Over Vehicle Control or Percent Reduction Compared to Vehicle Control (%) (150 mg/kg BIDx1, 48 h): 1.04 fold or %
B2m* mRNA (housekeeping or reference gene), Fold Increase Over Vehicle Control or Percent Reduction Compared to Vehicle Control (%) (150 mg/kg BIDx1, 48 h): 1.20 fold or %
Gapdh* mRNA (housekeeping or reference gene), Fold Increase Over Vehicle Control or Percent Reduction Compared to Vehicle Control (%) (150 mg/kg BIDx1, 48 h): 27.30 fold or %
Gusb* mRNA (housekeeping or reference gene), Fold Increase Over Vehicle Control or Percent Reduction Compared to Vehicle Control (%) (150 mg/kg BIDx1, 48 h): 1.39 fold or %
Hsp90ab1* mRNA (housekeeping or reference gene), Fold Increase Over Vehicle Control or Percent Reduction Compared to Vehicle Control (%) (150 mg/kg BIDx1, 48 h): 19.96 fold or %
MGDC* (housekeeping or reference gene), Fold Increase Over Vehicle Control or Percent Reduction Compared to Vehicle Control (%) (150 mg/kg BIDx1, 48 h): 1.00 fold or %
Trp63 mRNA, Fold Increase Over Vehicle Control or Percent Reduction Compared to Vehicle Control (%) (150 mg/kg BIDx1, 48 h): 1.00 fold or %
Trp73 mRNA, Fold Increase Over Vehicle Control or Percent Reduction Compared to Vehicle Control (%) (150 mg/kg BIDx1, 48 h): 1.00 fold or %
Wt1 mRNA, Fold Increase Over Vehicle Control or Percent Reduction Compared to Vehicle Control (%) (150 mg/kg BIDx1, 48 h): 21.51 fold or %
Zmat3 mRNA, Fold Increase Over Vehicle Control or Percent Reduction Compared to Vehicle Control (%) (150 mg/kg BIDx1, 48 h): 1.36 fold or %
Actb* mRNA (housekeeping or reference gene), Fold Increase Over Vehicle Control or Percent Reduction Compared to Vehicle Control (%) (150 mg/kg BIDx1, 72 h): 1.04 fold or %
B2m* mRNA (housekeeping or reference gene), Fold Increase Over Vehicle Control or Percent Reduction Compared to Vehicle Control (%) (150 mg/kg BIDx1, 72 h): 1.18 fold or %
Gapdh* mRNA (housekeeping or reference gene), Fold Increase Over Vehicle Control or Percent Reduction Compared to Vehicle Control (%) (150 mg/kg BIDx1, 72 h): 19.69 fold or %
Gusb* mRNA (housekeeping or reference gene), Fold Increase Over Vehicle Control or Percent Reduction Compared to Vehicle Control (%) (150 mg/kg BIDx1, 72 h): 1.27 fold or %
Hsp90ab1* mRNA (housekeeping or reference gene), Fold Increase Over Vehicle Control or Percent Reduction Compared to Vehicle Control (%) (150 mg/kg BIDx1, 72 h): 1.00 fold or %
MGDC* (housekeeping or reference gene), Fold Increase Over Vehicle Control or Percent Reduction Compared to Vehicle Control (%) (150 mg/kg BIDx1, 72 h): 1.53 fold or %
Trp63 mRNA, Fold Increase Over Vehicle Control or Percent Reduction Compared to Vehicle Control (%) (150 mg/kg BIDx1, 72 h): 1.67 fold or %
Trp73 mRNA, Fold Increase Over Vehicle Control or Percent Reduction Compared to Vehicle Control (%) (150 mg/kg BIDx1, 72 h): 1.00 fold or %
Wt1 mRNA, Fold Increase Over Vehicle Control or Percent Reduction Compared to Vehicle Control (%) (150 mg/kg BIDx1, 72 h): 21.51 fold or %
Zmat3 mRNA, Fold Increase Over Vehicle Control or Percent Reduction Compared to Vehicle Control (%) (150 mg/kg BIDx1, 72 h): 1.21 fold or %
